In one experiment the test system is LNCaP cells. Put plainly: LNCaP growth assay (cell count). The experiment is classed as cell-based, human. On the procedure: LNCaP cells express an endogenous mutant AR that is found in prostate cancer patients. This clinically relevant cell model was used to study JC9's effect in suppressing prostate cancer cell growth. Cells were plated at a density of 6.3×10^4 cells/well in 6-well tissue culture dishes. Two days later, the complete medium was aspired and 10% charcoal/dextran-treated (hormone depleted) serum-containing medium was added. Test compounds, JC9 and hydroxyflutamide (HF) were then added to the medium at a final concentration of 5 μM with or without 1 nM of DHT. For vehicle control, the same amount of DMSO was added. For the subsequent 5 days, the medium was aspired once per day, and fresh medium containing test compounds and/or DHT was added. At designated times, a portion of cells was harvested by trypsinization, and cell count was performed using a hemacytometer.

The subject of experiment [1] is testosterone-induced hair growth suppression. Briefly: Androgen-induced alopecia model, hair re-growth in shaved mice. The experiment is classed as in vivo, C57BL/6J mice. The settings on record: topical testosterone 1% in the morning, control solution in the afternoon, 20 days. On the procedure: C57BL/6J mice were used in this animal model for hair loss and regrowth (Uno et al. (1990) J. Cutaneous Aging & Cosm. Derm., 1: 193, which is incorporated by reference in its entirety herein). Six-week-old male mice (6 to 7 animals per group) were shaved with an electric clipper, and then treated with a hair-removal cream for 1 to 2 minutes. […] One day after hair removal, a first group of animals each received 100 microliters of a 1% testosterone solution in ethanol, applied topically to the shaved area, once each morning for twenty consecutive days. A second group of animals each received 100 microliters of vehicle (ethanol) alone, applied topically to the shaved area, once each morning for twenty consecutive days. The first group of mice (testosterone-treated) were divided further into a control group and a treatment group. Also beginning one day after hair removal, each mouse in the control group received 100 microliters of a control solution (60% ethanol, 20% propylene glycol, and 20% water) and each mouse in the treatment group received 100 microliters of the test compound, JC9 (0.02% in the same 60% ethanol, 20% propylene glycol, and 20% water solution), applied topically to the shaved area, once each afternoon for twenty consecutive days. Hair re-growth in the shaved areas was observed and photographed at 12, 15, 18, 21, and 24 days after beginning of the topical treatments.

With `C[C@]12CCC(=O)C[C@@H]1CC[C@@H]1[C@@H]2CC[C@]2(C)[C@@H](O)CC[C@@H]12` [DHT, dihydrotestosterone], the “LNCaP cell growth with DHT alone” value in the experiment on LNCaP cells (1 nM DHT, 4-5 days) was “up-regulated LNCaP cell growth”.
Take `CC(C)(O)C(=O)Nc1ccc([N+](=O)[O-])c(C(F)(F)F)c1` [HF, hydroxyflutamide]: the “cell growth (cell number) in the presence of DHT” value with LNCaP cells (5 μM, with 1 nM DHT, 5 days) was “moderate activity to repress DHT-stimulated cell growth”. For the same compound, the “cell growth (cell number)” value with LNCaP cells (5 μM, without DHT, 5-day incubation) is listed as “dramatic growth suppressing effect, however, was not detected”.
As for `C[C@]12CC[C@H]3[C@@H](CCC4=CC(=O)CC[C@@]43C)[C@@H]1CC[C@@H]2O` [testosterone, reference compound], in experiment [1], the “hair re-growth in shaved areas” value is “little or no re-growth of hair”.

Values taken from patent publication US20060084704A1, “Methods and compositions for enhancing degradation of nuclear receptor transcription factors and uses thereof” (priority 2004, published 2006).
